US9315532B2, “Fatty acid carbohydrate hybrid molecules as therapeutic agents and methods thereof” (The Johns Hopkins University, priority 2005, dated 2016)

Tests used:
[1] = tested on: sialic acid biosynthesis in Jurkat cells; experiment: Assay for total sialic acid production (periodate-resorcinol); format: cell-based, human; settings: 50 and 100 mM, 48 h
Description: Jurkat cells (5.0×10^6 cells in 10 mL medium) were incubated with 1-5 at various concentrations. […] The cell lysates were analyzed by using an adapted version of the periodate-resorcinol assay (36, 59) with the periodic acid oxidation step performed on ice to allow quantification of total (i.e., free monosaccharide plus glycoconjugate-bound) sialic acid. For each assay, a standard curve was obtained using N-acetylneuraminic acid (Pfanstiehl, Waukegan, Ill.) for calibration.

[2] = tested on: Jurkat cells; experiment: Toxicity of sodium butyrate (5) towards cells primed with ManNAc; format: cell-based, human
Description: Jurkat cells (5.0×10^5 per mL) were incubated with PBS and ManNAc at 50 or 100 mM. After 48 h, the cells were counted, harvested, washed once in fresh medium and plated in a 24-well plate containing various concentrations of sodium butyrate (5) (0-2.0 mM; a stock solution of 200 mM in PBS was used for dilutions and control samples). Cell cultures were maintained and growth was monitored for 15 days as described above under the toxicity and growth inhibition assays.

[3] = tested on: HeLa cells; experiment: Morphological changes to HeLa cells; format: cell-based, human; settings: 3 days; 1 at 250 μM, 5 at 5.0 mM
Description: (§1) The studies on morphological changes induced by sodium butyrate (5) and But4ManNAc (1) were performed following a reported procedure (45). Briefly, HeLa cells (200,000 cells per well in a 6-well plate) were plated and allowed to form monolayers. After 24 h, the supernatant was aspirated, fresh medium (4.0 mL) was added and treated with either ethanol (20 μL (0.5%), control), 5 (5.0 mM), or 1 (250 μM). For the AD 293 (HEK) cells 2.0×10^6 cells in 10 mL of medium (100 mm tissue culture dishes) were plated and treated, immediately after plating, with either ethanol (50 μL, control), 5 (5.0 mM), or 1 (250 μM). Images were acquired at various time intervals under bright field using a Nikon Eclipse TE200 inverted microscope equipped with a DXM 1200 digital camera.

[4] = tested on: AD293 (HEK) cells; experiment: Morphological changes / toxicity in AD293 (HEK) cells; format: cell-based, human; settings: 2 days; 1 at 250 μM, 5 at 5.0 mM
Description: as §1

[5] = tested on: p21WAF1/Cip1 promoter; experiment: Luc-p21WAF1/Cip1 luciferase reporter gene assay in AD293 (HEK) cells; format: cell-based, human
Description: The plasmid Luc-p21^Cip1/WAF1 (a gift from Vogelstein Laboratory, JHMI, Baltimore, Md.) was amplified and purified utilizing a plasmid maxi kit (Cat. No. 12163. Qiagen, Valencia, Calif.) following the manufacturer's protocol. HEK cells (2.5×10^5) were seeded in 3.0 mL medium and grown in 6-well T. C. plates. Transfection was performed using lipofectamine 2000 (Cat. No. 11668-019, Invitrogen, Carlsbad, Calif.) following the protocol supplier's protocol. Cells were trypsinized 24 h after transfection and seeded at 250,000 cells per well with concentrations of 1-4 shown in FIG. 3a or 1, 5, and ManNAc plus 5 at the concentrations shown in FIG. 3c. After 72 h, the cells were trypsinized, counted and lysed in 300 μL of luciferase cell culture lysis buffer and diluted five-fold in the same buffer. Luminometry was performed utilizing the ‘Luciferase Assay System’ (Cat. No. 1500, 4550, Promega, Madison, Wis.) following supplier's protocol. Luciferase Assay Reagent (100 μL) was added to the cell lysate (20 μL) in luminometer tubes (Cat. No. 55.476, Sarstedt, Newton, N.C.) and the luminescence was measured immediately using a Berthold Sirius Luminometer. The final values were normalized relative to ethanol-treated controls and reported on a per cell basis.

[6] = tested on: p21WAF1; experiment: Endogenous p21WAF1 assay (anti-p21WAF1 antibody, flow cytometry) in Jurkat cells; format: cell-based, human; settings: one week, 1 at 250 μM, 5 at 2.5 mM
Description: Endogenous expression of p21^WAF1 was detected following a reported procedure (58) with minor modifications. Jurkat cells (5.0×10^6 cells in 10 mL medium) were incubated with either ethanol or 1 (250 μM or 5 (2.5 mM). On a daily basis, aliquots of cells (˜1.0×10^6 per sample) were taken, washed with PBS (2×1.0 mL), fixed with Reagent A (Fix and Perm Kit, Caltag Laboratories, CA, Cat. No. GAS-003) for 10 min at room temperature, washed with washing buffer (PBS containing 5.0% FBS, 0.1% NaN3), re-suspended in 95% v/v methanol and kept on ice. After 30 min, cells were again washed with washing buffer and incubated with FITC-conjugated anti-p21^WAF1 antibody (Calbiochem, San Diego, Calif., Cat. No. OP64F) at 2.0 μg/mL in Reagent B (100 μL) (Fix and Perm Kit, Caltag Laboratories) for 1.0 h at room temperature in the dark. Finally, cells were re-suspended in washing buffer (500 μL) and analyzed by flow cytometry. Three replicate samples were taken for each condition and 10,000 events were counted for each sample.

[7] = tested on: Jurkat cells; experiment: Toxicity and growth inhibition assays (cell counts on days 3, 5 and 15); format: cell-based, human; settings: Jurkat cells, 0-320 μM
Description: For cell culture studies, But4ManNAc (1) (50) was used as a mixture of anomers (α/β=10/90), But4GlcNAc (2) as pure α-anomer and But5Man (3) as pure β-anomer (It is noteworthy that the intracellular hydrolysis of butyrate esters makes the anomeric configuration less relevant in these studies and we found similar cellular effects between the α- and β-anomers in long term toxicity). Stock solutions of the sugar analogs were made in ethanol at concentrations of 10 mM and 50 mM. In the case of cells growing in suspension the solutions of 1-4 (or an ethanol control at an equivalent volume) were coated onto dishes and the ethanol was allowed to evaporate prior to plating. Unless otherwise noted, throughout this study Jurkat cells (Clone E-6, ATCC, Manassas, Va.) were cultured in RPMI 1640 medium supplemented with 300 mg/L glutamine, 5.0% fetal bovine serum (HyClone, Logan, Utah) and 1.0% of a 100× dilution of a pen/strep stock solution containing penicillin (100 units/mL) and streptomycin (100 μg/mL); HL-60 cells (ATCC, Manassas, Va.) were cultured in RPMI 1640 medium supplemented with 10% FBS and pen/strep; and AD293 (HEK) cells (Stratagene, La Jolla, Calif.) were grown in DMEM medium with 10% FBS and pen/strep. In all cases, cells were incubated in a standard 37° C. in a 5.0% CO2, water-saturated environment. Cell counting was performed with a Beckman-Coulter Z2 particle counter and hemacytometer.
Solutions of the analogs in EtOH (10 mM stock) were coated onto 24-well plates at a range of concentrations from 0-320 μM and ethanol was allowed to evaporate. Jurkat cells (1.0×10^5 cells) in 0.5 mL of medium were plated in each well (day 0). On days 3 and 5, fresh medium (1.0 mL) was added to each well. Cell cultures were mixed by gentle pipetting and 100 μL of cell suspension was taken from each well and counted. On days 7, 9, 11, 13 and 15, 1.0 mL of cell suspension was removed from each well after thorough mixing and fresh medium (1.0 mL) was added. Cells were counted on day 15 and the cell density was plotted as a percentage of control (as was done for cell counts from days 3 and 5).

[8] = tested on: Jurkat cells; experiment: Cell viability assay (trypan blue exclusion); format: cell-based, human; settings: 200 μM
Description: Jurkat cells (2.0×10^5 cells/mL) were seeded with 1-4 at 200 μM in 6-well T. C. plates. Aliquots of cell suspension (20 μL) were removed on a daily basis diluted with either PBS (20 μL) or trypan blue solution (20 μL) and cell viability was determined by using the standard trypan blue exclusion method; three replicate counts were taken for each condition.

[9] = tested on: Jurkat cells; experiment: Flow cytometry analysis of cell cycle status (PI/RNase A); format: cell-based, human; settings: human cancer cells
Description: The cell cycle arrest induced by butyrate analogs was studied following the standard protocol (49). Briefly, Jurkat cells (2.3×10^5 cells/mL) were incubated with various concentrations of 1 (0, 25, 50, 75, 100, 150 and 200 μM); 2 (200 μM); 3 (200 μM); and 4 (200 μM) for five days. The cells were then harvested, counted, washed twice with PBS, re-suspended in PBS (500 μL), added to a cold solution of 78% aqueous ethanol (4.5 mL) using a glass Pasteur pipette and kept at 2.0° C. for at least 24 h. The fixed cells were centrifuged twice to remove the ethanol completely, re-suspended in propidium iodide (PI)/ribonuclease A (RNase A) staining buffer (BD Pharmingen, Catalog No. 550825, San Diego, Calif.) (500 μL for 1.0×10^6 cells), incubated at 37° C. for 15 min and analyzed by flow cytometry. The cellular aggregates were excluded from single cell populations using an area-width plot (FL2—PT fluorescence) for the cell cycle status determination. At least 10,000 gated events were counted for each determination.
Jurkat cells (2.5×10^5 cells/mL) were incubated with either ethanol (0.2%) or 1 (100 μM or 200 μM). Aliquots of cell suspensions were taken on day 0 and days 2-6, washed with PBS (twice) and fixed in 75% ethanol at 2.0° C. for at least 48 h. The cells were stained with PI/RNase staining buffer and analyzed by flow cytometry as given above.

Row | SMILES | level required for even partial cell inhibition and toxicity, when used separately ([2]; Jurkat cells, day 15) | long term growth characteristics (day 15) [7] | reduced cell viability in trypan blue assay [8] | apoptosis versus cell cycle arrest (summary) [9] | also measured
1 | CC(=O)N[C@@H]1C(O)O[C@H](CO)[C@@H](O)[C@@H]1O (stereo partly drawn) [ManNAc, N-acetyl-D-mannosamine, reference compound] | 100 mM |  |  |  | increase in total sialic acid [1]: 20-30 fold
2 | CCCC(=O)[O-].[Na+] [compound 5, Sodium n-butyrate, reference compound] | 2.0 mm |  |  |  | morphological changes / differentiation of HeLa cells [3]: growth of extended processes; apoptosis / toxicity in AD293 cells [4]: toxicity; concentration level required for p21WAF1/Cip1 activation [5]: millimolar concentrations required; endogenous p21WAF1 levels [6]: increased p21^WAF1 levels; growth of ManNAc-treated cells compared to untreated controls ([2]; Jurkat cells pre-incubated with ManNAc 50 or 100 mM, 5 at 0-2.0 mM, five days): inhibited; concentration at which ManNAc-treated cells showed susceptibility ([2]; Jurkat cells pre-incubated with ManNAc, day 15): ≥ 2.0 mM; growth of control cells (without ManNAc) ([2]; Jurkat cells, 5 at 0-2.0 mM, day 15): almost completely recovered from early inhibition
3 | CCCC(=O)OC[C@H]1OC(OC(=O)CCC)[C@@H](OC(=O)CCC)[C@@H](OC(=O)CCC)[C@@H]1OC(=O)CCC (stereo partly drawn) [compound 3, 1,2,3,4,6-Penta-O-butanoyl-α,β-D-mannopyranose] |  | resumed cell growth over the long term | not | only provided transient cell cycle arrest | 
4 | CCCC(=O)OCC(COC(=O)CCC)OC(=O)CCC [compound 4, tributyrin, reference compound] |  | resumed cell growth over the long term |  | only provided transient cell cycle arrest | cell proliferation at early time points (days 3 & 5) ([7]; days 3 and 5): minimal inhibition
5 | CCCC(=O)OC[C@H]1O[C@H](OC(=O)CCC)[C@H](NC(C)=O)[C@@H](OC(=O)CCC)[C@@H]1OC(=O)CCC [compound 2, 2-Acetamido-1,3,4,6-tetra-O-butanoyl-2-deoxy-α-D-glucopyranose] |  | resumed cell growth over the long term | not | only provided transient cell cycle arrest | melting point: 152 to 154 °C
